Active and inactive are the calls of the source.
Assays:
[1] = target: T1, Dual specificity protein phosphatase 3 (Homo sapiens, UniProt P51452); assay: VHR1 phosphatase inhibitors, primary screen, biochemical, absorbance, uHTS (AID 1654)
[2] = target: T2, Carboxy-terminal domain RNA polymerase II polypeptide A small phosphatase 1 (Homo sapiens, UniProt Q9GZU7); assay: CTDSP1 inhibitors, concentration-response, biochemical, absorbance readout, ultra-high-throughput screen actives (AID 540297); assay type: functional
T2 sequence (Q9GZU7 whole entry): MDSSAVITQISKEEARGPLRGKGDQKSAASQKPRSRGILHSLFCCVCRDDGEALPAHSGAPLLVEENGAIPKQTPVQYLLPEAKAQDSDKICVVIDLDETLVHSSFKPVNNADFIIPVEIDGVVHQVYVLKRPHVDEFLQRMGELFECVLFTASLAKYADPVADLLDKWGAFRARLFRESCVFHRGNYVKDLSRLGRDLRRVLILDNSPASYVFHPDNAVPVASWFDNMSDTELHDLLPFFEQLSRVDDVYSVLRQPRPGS

[3] = target: Low molecular weight phosphotyrosine protein phosphatase (Homo sapiens, UniProt P24666); assay type: functional; settings: read-out: IC50_Mean
Sequence of Low molecular weight phosphotyrosine protein phosphatase (P24666 whole entry): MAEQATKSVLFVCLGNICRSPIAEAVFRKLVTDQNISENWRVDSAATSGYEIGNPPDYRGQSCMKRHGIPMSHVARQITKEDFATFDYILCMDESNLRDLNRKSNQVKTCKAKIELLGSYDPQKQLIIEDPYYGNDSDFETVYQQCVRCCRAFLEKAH

[4] = target: T3, Dual specificity protein phosphatase 6 (Rattus norvegicus, UniProt Q64346); assay: inhibition of rat DUSP6 enzyme activity – biochemical, in vitro, primary screen (AID 425)
T3 sequence (Q64346 whole entry): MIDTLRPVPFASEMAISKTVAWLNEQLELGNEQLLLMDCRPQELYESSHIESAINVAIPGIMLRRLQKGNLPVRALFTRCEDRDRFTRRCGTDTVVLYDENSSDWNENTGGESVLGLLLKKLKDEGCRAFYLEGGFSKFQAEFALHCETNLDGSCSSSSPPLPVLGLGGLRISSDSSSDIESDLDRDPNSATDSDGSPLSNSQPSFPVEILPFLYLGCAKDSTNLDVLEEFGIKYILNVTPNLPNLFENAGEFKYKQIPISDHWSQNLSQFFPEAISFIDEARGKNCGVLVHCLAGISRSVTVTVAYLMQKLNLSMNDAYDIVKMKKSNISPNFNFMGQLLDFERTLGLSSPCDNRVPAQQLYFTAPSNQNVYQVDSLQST

[5] = target: T1, Dual specificity protein phosphatase 3; assay: VHR1 phosphatase inhibitors, biochemical (AID 1878)
[6] = target: Peroxisome proliferator-activated receptor gamma/Nuclear receptor coactivator 2 (Homo sapiens, UniProt P37231); assay: (§1) TR-FRET dose response biochemical High Throughput Screening assay for agonists of the steroid receptor coactivator 2 (SRC-2) recruitment by the peroxisome proliferator-activated receptor gamma (PPAR gamma): non-selective agonists. [Related pubchem assays: 1297, 1032 ]; assay type: functional
[7] = target: Peroxisome proliferator-activated receptor gamma/Nuclear receptor coactivator 1 (Homo sapiens, UniProt P37231); assay: as §1, with “1 (SRC-1)” for “2 (SRC-2)”, “assays (depositor defined):AID1300, AID1808, AID504735, AID631]” for “assays: 1297, 1032 ]”; assay type: protein assay
[8] = target: Peroxisome proliferator-activated receptor gamma/Nuclear receptor coactivator 3 (Homo sapiens, UniProt P37231); assay: as §1, with “3 (SRC-3)” for “2 (SRC-2)”, “1301 (Confirmation screen.), 1048 (Primary screen.)]” for “1297, 1032 ]”; assay type: functional
Sequence of Peroxisome proliferator-activated receptor gamma/Nuclear receptor coactivator 3 (P37231 whole entry): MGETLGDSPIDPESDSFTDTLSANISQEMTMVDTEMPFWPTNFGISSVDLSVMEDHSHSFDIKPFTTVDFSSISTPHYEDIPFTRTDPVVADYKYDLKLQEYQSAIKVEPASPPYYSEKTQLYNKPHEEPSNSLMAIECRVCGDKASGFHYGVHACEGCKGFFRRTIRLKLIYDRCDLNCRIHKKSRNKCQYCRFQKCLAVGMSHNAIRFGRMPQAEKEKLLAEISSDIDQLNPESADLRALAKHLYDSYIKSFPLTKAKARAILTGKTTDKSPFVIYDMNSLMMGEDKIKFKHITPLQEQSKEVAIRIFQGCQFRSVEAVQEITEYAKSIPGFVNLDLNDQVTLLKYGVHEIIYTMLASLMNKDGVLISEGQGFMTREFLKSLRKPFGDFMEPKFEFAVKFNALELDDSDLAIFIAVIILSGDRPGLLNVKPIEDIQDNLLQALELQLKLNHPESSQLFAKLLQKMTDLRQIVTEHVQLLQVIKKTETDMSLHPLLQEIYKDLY
Sequence of Peroxisome proliferator-activated receptor gamma/Nuclear receptor coactivator 3 (Q9Y6Q9 whole entry, further chain): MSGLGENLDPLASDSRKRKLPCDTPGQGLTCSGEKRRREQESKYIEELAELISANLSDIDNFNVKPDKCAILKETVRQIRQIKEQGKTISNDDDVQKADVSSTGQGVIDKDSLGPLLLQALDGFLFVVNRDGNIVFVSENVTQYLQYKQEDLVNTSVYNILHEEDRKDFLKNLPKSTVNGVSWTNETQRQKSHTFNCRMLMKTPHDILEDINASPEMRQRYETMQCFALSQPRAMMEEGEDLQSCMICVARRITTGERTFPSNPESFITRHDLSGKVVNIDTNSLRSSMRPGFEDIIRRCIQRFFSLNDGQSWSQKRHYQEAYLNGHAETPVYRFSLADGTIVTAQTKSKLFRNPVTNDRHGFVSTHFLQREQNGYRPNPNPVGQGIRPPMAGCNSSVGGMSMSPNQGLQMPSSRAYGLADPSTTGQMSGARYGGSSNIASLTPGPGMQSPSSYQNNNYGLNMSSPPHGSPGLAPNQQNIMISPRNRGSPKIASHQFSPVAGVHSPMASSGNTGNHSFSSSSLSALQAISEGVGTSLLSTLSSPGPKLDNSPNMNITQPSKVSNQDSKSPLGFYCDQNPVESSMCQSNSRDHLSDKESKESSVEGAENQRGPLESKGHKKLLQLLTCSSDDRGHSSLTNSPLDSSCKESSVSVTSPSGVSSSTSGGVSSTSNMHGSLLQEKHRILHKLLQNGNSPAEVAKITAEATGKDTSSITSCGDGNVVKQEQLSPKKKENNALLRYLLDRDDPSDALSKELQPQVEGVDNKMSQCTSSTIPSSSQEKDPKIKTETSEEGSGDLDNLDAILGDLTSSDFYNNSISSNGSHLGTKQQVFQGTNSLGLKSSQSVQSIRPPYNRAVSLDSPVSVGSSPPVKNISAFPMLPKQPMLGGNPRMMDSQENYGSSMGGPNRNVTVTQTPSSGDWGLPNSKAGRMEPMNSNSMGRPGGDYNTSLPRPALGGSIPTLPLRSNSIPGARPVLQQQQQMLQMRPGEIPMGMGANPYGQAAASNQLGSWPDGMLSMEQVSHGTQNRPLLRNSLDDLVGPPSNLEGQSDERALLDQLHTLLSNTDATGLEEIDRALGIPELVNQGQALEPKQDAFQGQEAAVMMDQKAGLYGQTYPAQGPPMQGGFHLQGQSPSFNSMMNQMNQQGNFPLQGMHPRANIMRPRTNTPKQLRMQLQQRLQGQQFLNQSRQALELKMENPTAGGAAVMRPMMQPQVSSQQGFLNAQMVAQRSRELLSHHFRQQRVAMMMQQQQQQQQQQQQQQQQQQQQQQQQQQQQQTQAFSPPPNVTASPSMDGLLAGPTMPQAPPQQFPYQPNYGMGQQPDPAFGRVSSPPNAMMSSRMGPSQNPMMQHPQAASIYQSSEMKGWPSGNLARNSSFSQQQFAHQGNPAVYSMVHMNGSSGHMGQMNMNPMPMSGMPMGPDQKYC

[9] = target: T4, Kappa-type opioid receptor (Homo sapiens, UniProt P41145); assay: kappa opioid receptor activation potency – imaging, image-based, SAR follow-up (AID 2359); assay type: functional
T4 sequence (P41145 whole entry): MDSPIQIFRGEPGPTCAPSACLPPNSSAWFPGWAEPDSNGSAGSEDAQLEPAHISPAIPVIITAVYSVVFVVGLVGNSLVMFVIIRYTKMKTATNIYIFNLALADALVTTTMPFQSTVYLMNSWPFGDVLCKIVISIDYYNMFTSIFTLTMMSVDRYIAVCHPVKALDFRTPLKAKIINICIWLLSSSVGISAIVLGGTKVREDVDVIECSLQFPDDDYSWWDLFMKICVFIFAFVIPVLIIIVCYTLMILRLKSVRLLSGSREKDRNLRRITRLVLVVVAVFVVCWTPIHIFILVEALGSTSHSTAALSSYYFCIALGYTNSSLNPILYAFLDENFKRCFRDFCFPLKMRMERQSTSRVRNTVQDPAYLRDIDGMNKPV

Mu-type opioid receptor [10] = target: T5, Mu-type opioid receptor (Homo sapiens, UniProt P35372); assay: mu opioid receptor activators, image-based, SAR follow-up (AID 2352); assay type: functional
T5 sequence (P35372 whole entry): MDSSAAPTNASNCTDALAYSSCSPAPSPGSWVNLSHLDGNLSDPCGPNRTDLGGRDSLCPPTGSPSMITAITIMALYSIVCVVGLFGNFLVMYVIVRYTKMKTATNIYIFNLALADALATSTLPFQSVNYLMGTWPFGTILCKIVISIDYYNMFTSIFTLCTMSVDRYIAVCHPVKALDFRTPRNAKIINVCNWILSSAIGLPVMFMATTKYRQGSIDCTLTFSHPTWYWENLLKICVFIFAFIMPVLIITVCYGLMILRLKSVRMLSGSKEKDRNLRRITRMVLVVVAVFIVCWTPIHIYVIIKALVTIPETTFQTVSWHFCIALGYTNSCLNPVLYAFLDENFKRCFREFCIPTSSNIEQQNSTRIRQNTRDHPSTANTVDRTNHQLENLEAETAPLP

[11] = target: T6, Delta-type opioid receptor (Homo sapiens, UniProt P41143); assay: DOR agonists, SAR follow-up, image-based (AID 2370); assay type: functional
T6 sequence (P41143 whole entry): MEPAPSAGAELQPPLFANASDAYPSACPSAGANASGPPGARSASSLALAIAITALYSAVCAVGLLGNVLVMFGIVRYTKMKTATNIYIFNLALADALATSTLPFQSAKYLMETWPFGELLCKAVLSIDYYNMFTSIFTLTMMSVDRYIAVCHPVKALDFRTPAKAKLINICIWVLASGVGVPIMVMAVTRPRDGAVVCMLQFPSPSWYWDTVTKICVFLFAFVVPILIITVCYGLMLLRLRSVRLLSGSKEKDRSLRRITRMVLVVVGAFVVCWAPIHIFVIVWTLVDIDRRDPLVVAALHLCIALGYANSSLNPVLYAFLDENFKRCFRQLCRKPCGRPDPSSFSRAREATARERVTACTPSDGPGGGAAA

Mu-type opioid receptor [12] = target: T5, Mu-type opioid receptor; assay: HTS Image-Based Screen for Agonists of the MOR Receptor. [Related pubchem assays (depositor defined):AID1777, AID1785, AID1786, AID2133]; assay type: functional
[13] = target: T4, Kappa-type opioid receptor; assay type: functional
[14] = target: T4, Kappa-type opioid receptor; assay type: functional; remark: listed apart in the source
[15] = target: T4, Kappa-type opioid receptor; assay: SAR analysis of small molecule agonists of the kappa opioid receptor via a luminescent beta-arrestin assay. [Related pubchem assays (depositor defined):AID1777, AID1786, AID1966, AID2133, AID2136, AID2348, AID2352, AID2357, AID2359, AID2370, AID2420, AID2478, AID2491, AID2492, AID2493, AID2497, AID2498, AID2500, AID449737, AID488822, AID488842]; assay type: functional
Mu-type opioid receptor [16] = target: T5, Mu-type opioid receptor; assay: mu opioid receptor blockers – image-based, SAR follow-up (AID 2420); assay type: functional;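 also: compounds added before stimulation of receptor with agonist DAMGO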
[17] = target: T6, Delta-type opioid receptor; assay: HTS Image-Based Screen for Antagonists of the DOR Receptor. [Related pubchem assays (depositor defined):AID1777, AID1785, AID1786, AID2133]; assay type: functional
[18] = target: T6, Delta-type opioid receptor; assay: delta opioid receptor blockers – image-based, SAR follow-up (AID 2357); assay type: functional
[19] = target: T6, Delta-type opioid receptor; assay: HTS Image-Based Screen for Agonists of the DOR Receptor. [Related pubchem assays (depositor defined):AID1777, AID1786, AID2133]; assay type: functional
[20] = target: T4, Kappa-type opioid receptor; assay: kappa opioid receptor blockers, image-based, SAR follow-up (AID 2348); assay type: functional

T1 sequence (P51452 whole entry, the tested form may be a part): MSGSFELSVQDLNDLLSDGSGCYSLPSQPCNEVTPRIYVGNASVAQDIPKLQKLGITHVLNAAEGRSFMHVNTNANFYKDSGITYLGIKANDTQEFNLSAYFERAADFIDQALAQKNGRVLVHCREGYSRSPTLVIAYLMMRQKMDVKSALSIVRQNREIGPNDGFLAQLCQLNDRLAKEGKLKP

Cc1ccc(-n2c(=O)c3cc4c(=O)n(-c5ccc(C)c(C)c5)c(=O)c4c(C(=O)c4ccc(C(=O)O)cc4)c3c2=O)cc1C
IC50 [1]: 3.39 µM (active)
IC50 [2]: 1.12 µM (active)
IC50 [3]: 3.13 µM (active)
IC50 [4]: 18.9 µM (active)
IC50 [5]: 5.31 µM (active)

C#CCn1/c(=N/C(=O)c2sc3ccccc3c2Cl)sc2cc(S(N)(=O)=O)ccc21
EC50 [6]: 18.7 µM (not active)
EC50 [7]: 16.2 µM (inactive)
EC50 [8]: > 79.4 µM (not active)

Cc1cccc(C)c1NC(=O)C1(N(Cc2ccco2)C(=O)c2ccccn2)CCCC1
EC50 [9]: 1.11 µM (active)
EC50 (Mu-type opioid receptor [10]): > 32 µM (inactive)
EC50 [11]: > 32 µM (inactive)
EC50 (Mu-type opioid receptor [12]): > 32 µM (inactive)
EC50 [13]: 1.94 µM
EC50 [14]: 4.19 µM
EC50 [15]: 4.05 µM (active)
IC50 (Mu-type opioid receptor [16]): > 32 µM (inactive)
IC50 [17]: > 32 µM (inactive)
IC50 [18]: > 32 µM (inactive)
EC50 [19]: > 32 µM (inactive)
IC50 [20]: > 32 µM (inactive)
